Assay [1] concerns imine reductase derived from Streptomyces sp. GF3546. As to the kind of experiment: Substrate specificity of imine reductase: NADPH/NADH-dependent imine-reducing activity (decrease in absorbance at 340 nm). The format is biochemical. On the procedure:
A reaction mixture containing the enzyme, 100 mM potassium phosphate buffer (pH 7.0), 0.2 mM NADPH, and 10 mM 2-methyl-1-pyrrolin was incubated at 30° C. The reaction mixture was assayed to determine the decrease in absorbance at 340 nm due to the decrease of NADPH. The amount of enzyme that catalyzes the decrease of 1 μmol of NADPH per minute was defined as 1 U.
(§1) The enzyme prepared as described in Example 4 was incubated with various imine compounds.

Assay [2] shares this test system. Description: Substrate specificity of imine reductase: NADP+-dependent amine-oxidizing activity (increase in absorbance at 340 nm). The format is biochemical. Particulars: oxidation, substrate 10 mM, coenzyme NADP+. Here is the method: A reaction mixture containing 100 mM glycine/potassium chloride/potassium hydroxide buffer 10.5, 2.5 mM NADP^+, 10 mM (S)-2-methylpyrrolidine, and the enzyme was incubated at 30° C. The reaction mixture was assayed to determine the increase in absorbance at 340 nm due to the increase of NADPH. The amount of enzyme that catalyzes the increase of 1 μmol of NADPH per minute was defined as 1 U.
as §1

Setting [3] is: substrate 10 mM, coenzyme NADPH, activity of reducing 2-methyl-1-pyrroline taken as 100.
Setting [4] is: first % column, activity of reducing 2-methyl-1-pyrroline taken as 100.
The mark [5] stands for this setting: second % column, (S)-2-methylpyrrolidine = 100.0.

In assay [1] (setting [3]), `CC(=Nc1ccccc1)c1ccccc1` (mixture of isomers) [N-((E/Z)-N-(1-phenylethylidene)aniline] yielded a Relative activity of 5.3%.
Take `COc1cc2c(cc1OC)C(C)=NCC2` [1-Methyl-6,7-dimethoxy-3,4-dihydroisoquinoline]: the Relative activity in assay [1] (substrate 0.05 mM, coenzyme NADPH, activity of reducing 2-methyl-1-pyrroline taken as 100) amounted to 8.9%.
As to `CC1=NCCC1` [2-Methyl-1-pyrroline], the Relative activity in assay [1] (substrate 10 mM, coenzyme NADH, activity of reducing 2-methyl-1-pyrroline (NADPH) taken as 100) is reported as 0.0%; in assay [1] (setting [3]) it was 100.0%.
Regarding `C[C@@H]1CCCN1` [(R)-2-Methylpyrrolidine], the Relative activity turned out to be 7.7% in assay [2] (setting [4]) and 17.4% in assay [2] (setting [5]).
For `C[C@H]1CCCN1` [(S)-2-Methylpyrrolidine], the Relative activity is reported as 44.1% in assay [2] (setting [4]) and 100.0% in assay [2] (setting [5]).
`C(=NCc1ccccc1)c1ccccc1` [N-Benzylidenebenzylamine] registered a Relative activity in assay [1] (setting [3]) of 20.9%.

The values above are taken from patent publication US20110262977A1, “PROCESS FOR PRODUCTION OF OPTICALLY ACTIVE AMINE DERIVATIVE” (Daicel Chemical Industries, Ltd., priority 2008, published 2011).
